Source: patent publication US10076511B2, “Bisamide derivative of dicarboxylic acid as an agent for stimulating tissue regeneration and recovery of diminished tissue function” (TREAMID GmbH, priority 2015, dated 2018)
Where “and” joins values, the source holds several entries; their conditions need not be identical. Equal entries are not always repeated.

Assays:
male Wistar rats [1] = assay: Sexual incentive motivation test, rats of late reproductive age; assay type: in vivo, rat
Experimental: Erectile dysfunction was simulated by using animals of late and senile reproductive age (14-19 months). Suppression of sexual motivation was simulated by using animals of late reproductive age (14 months).
Experiments on studying the effect of Treamid on sexual motivation were carried out on 40 male Wistar rats (14 months of age). A model for a targeted search for novel agents for the therapy of this pathology was used as an experimental model of sexual incentive motivation in rats [Xi Chu, Ekaterina S. Zhavbert, Julia L. Dugina, Irina A. Kheyfets, Svetlana A. Sergeeva, Oleg I. Epstein, Anders Agmo Sindenafil and a compound stimulating endothelial NO synthase modity sexual incentive motivation and copulatory behavior in male wistar and fisher 344//J Sex Med.—2008.—5.—P. 2085-2009]. This model is based on the fact that rats are social animals and seek not only sexual, but also social contacts. The assessment of sexual motivation involves determining the time spent near a sexual stimulus and the score of preference in animals without direct contact with “social” and “sexual” stimuli. The sexual stimulus was a female rat in estrus stage, and the social stimulus was a male rat.

male Wistar rats [2] = assay: Metabolic syndrome model in rats (cafeteria diet); assay type: in vivo, rat
Description: Metabolic syndrome was simulated in male Wistar rats (260-280 g) by keeping animals on a high-fat diet (“cafeteria diet”) for 12 weeks. The “cafeteria diet” was balanced according to Current Protocols in Pharmacology [Current Protocols in Pharmacology (2005) Animal Models of Disease//Contributed by Petter Hedlund, Kenshi Matsumoto, and Karl-Erik Andersson]. The diet contained 25-35% of fats and 25-30% of digestible carbohydrates in addition to the standard diet of rodents. Treamid was administered at a dose of 0.5 mg/kg intragastrically once daily, every day from Week 7 to Week 11 of the diet. Reference drug Metformin was administered at a dose of 200 mg/kg intragastrically according to the same regimen.
The development of pathology and a therapeutic effect of Treamid were estimated by the following parameters: blood biochemical parameters (glucose, cholesterol, triglycerides (TG), HDL, LDL, atherogenicity index), glucose tolerance test, visceral fat weight, total number and percentage of motile sperm forms.
Glucose was determined with an OneNouch Select glucometer (Switzerland).
The levels of triglycerides, TCh and HDL were determined by using a diagnostic kit (Olvex Diagnosticum, Russia).
The level of LDL was determined by the formula 2. LDL=TCh−(HDL+TG/2.2) (1),
The atherogenicity index (AI) was calculated by the formula 3. AI=(TCh−HDL)/HDL (2),
The atherogenicity index was calculated for each animal individually, and then the arithmetic mean value of the group was calculated.
For the analysis of sperm, the animals were anesthetized with intraperitoneal injection of a mixture of Zolletil and Xyla (0.2 ml of Zoletil+0.8 ml Xyla) in a volume of 70 μl/100 g of weight. Epididymis was isolated. The epididymis head was cut off from the tail, weighed, 5 incisions were made (to improve the sperm yield), and placed in a tube containing 10 ml of phosphate buffered saline heated to 37° C. The tube was held at 37° C. for 10 minutes. Then, the tube was shaken on a shaker, 20 μl of the liquid was taken, applied to a glass slide heated to 37° C., and the number of motile sperm cells was assessed under a microscope. The calculation was performed up to 100 sperm cells.
The total number of sperm cells in a test tube with epididymis was calculated as follows: 20 μl of the liquid was taken after shaking and added to a tube containing 400 μl of physiological saline. After shaking the tubes, their contents (20 μl) were taken out and introduced into Goryaev chamber. The number of sperm cells was counted in 100 large squares. The number of sperm cells in the head of epididymis was calculated by the formula: Number of sperm cells=number of sperm cells in 100 large squares of Goryaev chamber*0.525(factor from the calculation of the dilution and the volume of Goryaev chamber)/weight of the epididymis head.

female C57Bl/6 mice = assay: Elastase-induced pulmonary emphysema model; assay type: in vivo, mouse
Experimental: Pulmonary emphysema was induced in female C57Bl/6 mice by a single intratracheal administration of elastase (Sigma, USA) at a dose of 0.6 U/mouse in 30 μl of 0.9% NaCl [Lüthje L., Raupach T., Michels H. et al.//Respiratory Research 2009, 10: 7]. The day of operation was taken as Day 0 of the experiment. Treamid was administered at a dose of 10 mg/kg intragastrically once daily, every day from Day 7 to Day 60 of the study. On Days 7, 14, 30 and 60, the animals were euthanized in a CO2 chamber, and their lungs were isolated.
The dynamics and severity of the developed emphysema in the lung tissue were assessed on histological preparations. For this, the lungs were fixed in a 10% neutral formalin solution and then poured into paraffin by the standard method. The preparations of the lung apex, middle lung field, and lower lung field of a thickness of 5 μm were prepared from the deparaffined sections, and stained with hematoxylin and eosin by the standard procedure. Further, photographs of the lung apex, middle lung field, and lower lung field were made, and the localization and area of emphysema were studied by using graphics processing software. The area of emphysematously enlarged lung tissue (% of normal tissue) was measured as an estimated score of the development of emphysema, and blood vessels and bronchi were excluded from the calculations [ArrateMunoz-Barrutia, Mario Ceresa, Xabier Artaechevarria, Luis M. Montuenga, and Carlos Ortiz-de-Solorzano. Quantification of Lung Damage in an Elastase-Induced Mouse Model of Emphysema//International Journal of Biomedical Imaging. Volume 2012, Article ID 734734, 11 pages; Susumu Sato, Erzsebet Bartoldk-Suki, Harikrishnan Parameswaran, Hiroshi Hamakawal and Bela Suki. Scale dependence of structure-function relationship in the emphysematous mouse lung//Front. Physiol. 6:146. doi: 10.3389/fphys. 2015.00146].

[3] = 14-month rats, Second test, after administration of the test compound, Treamid 5 mg/kg, Sildenafil 3 mg/kg, 14 days
[4] = 14-month rats, first test, before administration
[5] = Treamid 0.5 mg/kg, Metformin 200 mg/kg intragastrically Week 7-11 of high-fat diet
[6] = high-fat diet for 12 weeks, Treamid 0.5 mg/kg, Metformin 200 mg/kg
[7] = high-fat diet, Treamid 0.5 mg/kg, Metformin 200 mg/kg
[8] = Day 7, Treamid 10 mg/kg intragastrically from Day 7

O=C(CCCC(=O)NCCc1ncc[nH]1)NCCc1ncc[nH]1 [Treamid]
A, sec (time spent in the sexual stimulus zone) (male Wistar rats [1]; [3]): 154.00 ± 41.83#⋄ sec | B, sex (time spent in the social stimulus zone) (male Wistar rats [1]; [3]): 95.60 ± 29.66 s | PS, s. u. (preference score) (male Wistar rats [1]; [3]): 0.64±0.09 s. u. and 0.64 ± 0.09⋄ s. u. | effect on sexual motivation (male Wistar rats [1]; 14-month rats, Treamid 5 mg/kg, Sildenafil 3 mg/kg): has a stimulating effect | A, sec (time spent in the sexual stimulus zone) (male Wistar rats [1]; [4]): 132.30 ± 23.69 s | B, sec (time spent in the social stimulus zone) (male Wistar rats [1]; [4]): 113.60 ± 13.77 s | PS, s. u. (preference score) (male Wistar rats [1]; [4]): 0.51 ± 0.06 s. u. | decrease of time spent in the social stimulus zone compared with the control (male Wistar rats [1]; Treamid 5 mg/kg, second test): 2 times | Glucose level in the blood of male rats, mmol/L (male Wistar rats [2]; 3 weeks after the drug administration, Treamid 0.5 mg/kg, Metformin 200 mg/kg): 6.5 ± 0.2*& mmol/L | Glucose level in the blood of male rats, mmol/L (male Wistar rats [2]; 5 weeks after the drug administration, Treamid 0.5 mg/kg, Metformin 200 mg/kg): 7.8 ± 0.2*& mmol/L | Relative weight of visceral fat, Fat near the intestine (male Wistar rats [2]; [5]): 0.94 ± 0.07 % based on body weight | Relative weight of visceral fat, Fat near the kidneys (male Wistar rats [2]; [5]): 0.48 ± 0.05& % based on body weight | Relative weight of visceral fat, Fat near the testes (male Wistar rats [2]; [5]): 1.03 ± 0.14 % based on body weight | Relative weight of visceral fat, Total fat (male Wistar rats [2]; [5]): 2.46 % based on body weight | reduction of visceral fat weight gain in comparison with the control group (male Wistar rats [2]; Treamid 0.5 mg/kg, Metformin): 1.3 times | Glucose level in the blood of male rats (male Wistar rats [2]; before administration of drugs (Week 6 of diet)): 6.4 ± 0.2 mmol/L | HDL, mM/l (male Wistar rats [2]; [6]): 1.9±0.2 mM/l and 1.9 ± 0.2& mM/l | LDL, mM/l (male Wistar rats [2]; [6]): 1.2 ± 0.2 mM/l | Total cholesterol, mM/l (male Wistar rats [2]; [6]): 3.5 ± 0.1 mM/l | Triglycerides, mM/l (male Wistar rats [2]; [6]): 0.9 ± 0.1 mM/l | Percentage of motile sperm forms (male Wistar rats [2]; [7]): 34.43 ± 3.15& % | Total number of sperm cells (male Wistar rats [2]; [7]): 260.0 ± 38.7& | Glucose level in the blood of male rats, mmol/L (male Wistar rats [2]; one week after the drug withdrawal, Treamid 0.5 mg/kg, Metformin 200 mg/kg): 8.3 ± 0.7& mmol/L | increase of the percentage of motile sperm forms (male Wistar rats [2]; vs. high-fat diet control): 1.5 times | increase of the total number of sperm cells (male Wistar rats [2]; vs. high-fat diet control): 1.7 times | The area of emphysematously enlarged lung tissue (% of normal), Lower lung field (female C57Bl/6 mice; [8]): 41.3 ± 1.82 % of normal | The area of emphysematously enlarged lung tissue (% of normal), Lung apex (female C57Bl/6 mice; [8]): 0.9 ± 0.12*• % of normal | The area of emphysematously enlarged lung tissue (% of normal), Middle lung field (female C57Bl/6 mice; [8]): 5.4 ± 0.55 % of normal | The area of emphysematously enlarged lung tissue (% of normal), Lower lung field (female C57Bl/6 mice; Day 14, Treamid 10 mg/kg): 42.6 ± 1.79*• % of normal | The area of emphysematously enlarged lung tissue (% of normal), Lung apex (female C57Bl/6 mice; Day 14, Treamid 10 mg/kg): 0.7 ± 0.09*• % of normal | The area of emphysematously enlarged lung tissue (% of normal), Middle lung field (female C57Bl/6 mice; Day 14, Treamid 10 mg/kg): 29.03 ± 1.76 % of normal | The area of emphysematously enlarged lung tissue (% of normal), Lower lung field (female C57Bl/6 mice; Day 30, Treamid 10 mg/kg): 32.8 ± 3.78*• % of normal | The area of emphysematously enlarged lung tissue (% of normal), Lung apex (female C57Bl/6 mice; Day 30, Treamid 10 mg/kg): 2.4 ± 1.6*• % of normal | The area of emphysematously enlarged lung tissue (% of normal), Middle lung field (female C57Bl/6 mice; Day 30, Treamid 10 mg/kg): 18.5 ± 2.91 % of normal | The area of emphysematously enlarged lung tissue (% of normal), Lower lung field (female C57Bl/6 mice; Day 60, Treamid 10 mg/kg): 40.0 ± 3.57*• % of normal | The area of emphysematously enlarged lung tissue (% of normal), Lung apex (female C57Bl/6 mice; Day 60, Treamid 10 mg/kg): 3.6 ± 0.26*• % of normal | The area of emphysematously enlarged lung tissue (% of normal), Middle lung field (female C57Bl/6 mice; Day 60, Treamid 10 mg/kg): 24.9 ± 3.11 % of normal
